Experimental data: the kinase profiling compilation of Christmann-Franck et al. (2016)

What was measured:
[1] = biological target: AURKB (human) (UniProt Q96GD4); assay: radiometric filter-binding kinase assay
[2] = biological target: CDK2 CCNA2 (human) (UniProt P20248+P24941); assay: radiometric filter-binding kinase assay
[3] = biological target: EPHA4 (human) (UniProt P54764); assay: radiometric filter-binding kinase assay
[4] = biological target: GSK3B (human) (UniProt P49841); assay: radiometric filter-binding kinase assay
[5] = biological target: IRAK4 (human) (UniProt Q9NWZ3); assay: radiometric filter-binding kinase assay
[6] = biological target: MAPK10 (human) (UniProt P53779); assay: radiometric filter-binding kinase assay
[7] = biological target: MAPK13 (human) (UniProt O15264); assay: radiometric filter-binding kinase assay
[8] = biological target: NEK6 (human) (UniProt Q9HC98); assay: radiometric filter-binding kinase assay
[9] = biological target: PAK7 (human) (UniProt Q9P286); assay: radiometric filter-binding kinase assay
[10] = test system: PRKAA1 or PRKAA2 (rat); assay: radiometric filter-binding kinase assay; conditions: accession and sequence are those of the human protein
[11] = biological target: SRC (human) (UniProt P12931); assay: radiometric filter-binding kinase assay
[12] = biological target: SRPK1 (human) (UniProt Q96SB4); assay: radiometric filter-binding kinase assay
[13] = biological target: STK11 CAB39 STRADA (human) (UniProt Q9Y376+Q7RTN6+Q15831); assay: radiometric filter-binding kinase assay
[14] = test system: ABL1 (human), P00519 [H396P]; assay: KINOMEscan competition binding; conditions: compound 10.0 µM
[15] = biological target: BMX (human) (UniProt P51813); assay: KINOMEscan competition binding; conditions: compound 10.0 µM
[16] = biological target: CDKL2 (human) (UniProt Q92772); assay: KINOMEscan competition binding; conditions: compound 10.0 µM
[17] = biological target: CHUK (human) (UniProt O15111); assay: KINOMEscan competition binding; conditions: compound 10.0 µM
[18] = biological target: CSF1R (human) (UniProt P07333); assay: KINOMEscan competition binding; conditions: compound 10.0 µM
[19] = biological target: CaMK1 (human) (UniProt Q14012); assay: KINOMEscan competition binding; conditions: compound 10.0 µM
[20] = biological target: EGFR (human) (UniProt P00533); assay: KINOMEscan competition binding; conditions: compound 10.0 µM
[21] = biological target: EPHB2 (human) (UniProt P29323); assay: KINOMEscan competition binding; conditions: compound 10.0 µM
[22] = biological target: FGFR4 (human) (UniProt P22455); assay: KINOMEscan competition binding; conditions: compound 10.0 µM
[23] = biological target: INSRR (human) (UniProt P14616); assay: KINOMEscan competition binding; conditions: compound 10.0 µM
[24] = biological target: KIT (human) (UniProt P10721); assay: KINOMEscan competition binding; conditions: compound 10.0 µM
[25] = biological target: MAP4K2 (human) (UniProt Q12851); assay: KINOMEscan competition binding; conditions: compound 10.0 µM
[26] = biological target: MAPK14 (human) (UniProt Q16539); assay: KINOMEscan competition binding; conditions: compound 10.0 µM
[27] = biological target: MAPK8 (human) (UniProt P45983); assay: KINOMEscan competition binding; conditions: compound 10.0 µM
[28] = biological target: MLTK (human) (UniProt Q9NYL2); assay: KINOMEscan competition binding; conditions: compound 10.0 µM
[29] = biological target: MYO3A (human) (UniProt Q8NEV4); assay: KINOMEscan competition binding; conditions: compound 10.0 µM
[30] = biological target: PRKCE (human) (UniProt Q02156); assay: KINOMEscan competition binding; conditions: compound 10.0 µM
[31] = biological target: PTK2 (human) (UniProt Q05397); assay: KINOMEscan competition binding; conditions: compound 10.0 µM
[32] = biological target: RPS6KA5 KD1 (human) (UniProt O75582); assay: KINOMEscan competition binding; conditions: compound 10.0 µM
[33] = biological target: SRC (human) (UniProt P12931); assay: KINOMEscan competition binding; conditions: compound 10.0 µM
[34] = biological target: TIE1 (human) (UniProt P35590); assay: KINOMEscan competition binding; conditions: compound 10.0 µM
[35] = biological target: TNIK (human) (UniProt Q9UKE5); assay: KINOMEscan competition binding; conditions: compound 10.0 µM

Sequence of PAK7 (human) (Q9P286 whole entry, looked up): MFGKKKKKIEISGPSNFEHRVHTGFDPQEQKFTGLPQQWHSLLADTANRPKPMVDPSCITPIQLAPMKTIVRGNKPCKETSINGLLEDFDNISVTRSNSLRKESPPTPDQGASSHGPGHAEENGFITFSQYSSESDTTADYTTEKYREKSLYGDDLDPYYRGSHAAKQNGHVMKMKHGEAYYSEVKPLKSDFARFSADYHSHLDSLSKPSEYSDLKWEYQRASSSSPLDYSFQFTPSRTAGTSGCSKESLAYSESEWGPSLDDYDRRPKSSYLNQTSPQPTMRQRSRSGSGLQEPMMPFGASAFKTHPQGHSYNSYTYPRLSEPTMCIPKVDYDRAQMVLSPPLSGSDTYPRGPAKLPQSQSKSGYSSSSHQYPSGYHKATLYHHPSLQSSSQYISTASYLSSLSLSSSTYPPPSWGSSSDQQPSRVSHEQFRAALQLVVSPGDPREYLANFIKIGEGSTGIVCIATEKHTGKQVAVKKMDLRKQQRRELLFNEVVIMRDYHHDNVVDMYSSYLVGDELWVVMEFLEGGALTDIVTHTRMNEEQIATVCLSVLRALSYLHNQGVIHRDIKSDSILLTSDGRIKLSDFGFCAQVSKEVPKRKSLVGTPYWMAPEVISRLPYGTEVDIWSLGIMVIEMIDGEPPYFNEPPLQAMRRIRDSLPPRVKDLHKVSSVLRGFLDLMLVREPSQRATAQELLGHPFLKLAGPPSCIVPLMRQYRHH
Sequence of GSK3B (human) (P49841 whole entry, looked up): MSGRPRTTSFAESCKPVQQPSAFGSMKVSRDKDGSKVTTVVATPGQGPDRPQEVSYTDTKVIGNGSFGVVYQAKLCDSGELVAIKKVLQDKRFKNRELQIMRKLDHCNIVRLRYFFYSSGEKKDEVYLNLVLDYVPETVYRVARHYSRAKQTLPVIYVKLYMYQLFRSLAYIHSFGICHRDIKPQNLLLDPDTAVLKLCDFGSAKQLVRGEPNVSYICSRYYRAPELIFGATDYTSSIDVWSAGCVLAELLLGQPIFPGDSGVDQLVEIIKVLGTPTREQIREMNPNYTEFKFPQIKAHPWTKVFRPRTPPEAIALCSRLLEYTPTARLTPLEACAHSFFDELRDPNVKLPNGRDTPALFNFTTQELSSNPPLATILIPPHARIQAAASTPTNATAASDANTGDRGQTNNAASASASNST
Sequence of MAPK13 (human) (O15264 whole entry, looked up): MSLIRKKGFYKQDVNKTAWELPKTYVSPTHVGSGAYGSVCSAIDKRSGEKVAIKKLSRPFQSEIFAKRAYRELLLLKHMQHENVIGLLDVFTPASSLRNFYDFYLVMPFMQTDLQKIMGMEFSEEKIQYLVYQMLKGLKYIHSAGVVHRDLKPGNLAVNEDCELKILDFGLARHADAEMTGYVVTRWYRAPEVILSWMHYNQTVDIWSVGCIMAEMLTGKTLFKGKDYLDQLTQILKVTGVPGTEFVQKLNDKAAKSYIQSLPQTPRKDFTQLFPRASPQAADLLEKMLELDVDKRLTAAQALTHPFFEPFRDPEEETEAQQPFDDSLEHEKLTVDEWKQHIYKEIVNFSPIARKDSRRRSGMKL
Sequence of AURKB (human) (Q96GD4 whole entry, looked up): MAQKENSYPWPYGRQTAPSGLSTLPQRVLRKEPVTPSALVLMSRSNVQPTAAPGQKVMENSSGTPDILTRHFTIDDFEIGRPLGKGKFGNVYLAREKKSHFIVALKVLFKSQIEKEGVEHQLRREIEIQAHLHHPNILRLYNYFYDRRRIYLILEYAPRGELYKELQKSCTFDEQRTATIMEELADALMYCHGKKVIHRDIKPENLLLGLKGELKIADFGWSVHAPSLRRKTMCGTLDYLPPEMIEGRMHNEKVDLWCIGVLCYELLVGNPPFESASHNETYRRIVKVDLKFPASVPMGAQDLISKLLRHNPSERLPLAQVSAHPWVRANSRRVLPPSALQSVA
Sequence of NEK6 (human) (Q9HC98 whole entry, looked up): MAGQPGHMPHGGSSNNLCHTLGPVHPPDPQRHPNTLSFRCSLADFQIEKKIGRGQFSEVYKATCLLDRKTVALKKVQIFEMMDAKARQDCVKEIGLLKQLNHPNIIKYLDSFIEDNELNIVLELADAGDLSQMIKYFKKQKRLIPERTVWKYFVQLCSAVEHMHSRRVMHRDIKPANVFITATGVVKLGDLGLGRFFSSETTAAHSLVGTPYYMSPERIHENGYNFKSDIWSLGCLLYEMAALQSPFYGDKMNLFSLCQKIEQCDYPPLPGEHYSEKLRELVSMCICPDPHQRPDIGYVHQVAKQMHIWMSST
Sequence of EPHA4 (human) (P54764 whole entry, looked up): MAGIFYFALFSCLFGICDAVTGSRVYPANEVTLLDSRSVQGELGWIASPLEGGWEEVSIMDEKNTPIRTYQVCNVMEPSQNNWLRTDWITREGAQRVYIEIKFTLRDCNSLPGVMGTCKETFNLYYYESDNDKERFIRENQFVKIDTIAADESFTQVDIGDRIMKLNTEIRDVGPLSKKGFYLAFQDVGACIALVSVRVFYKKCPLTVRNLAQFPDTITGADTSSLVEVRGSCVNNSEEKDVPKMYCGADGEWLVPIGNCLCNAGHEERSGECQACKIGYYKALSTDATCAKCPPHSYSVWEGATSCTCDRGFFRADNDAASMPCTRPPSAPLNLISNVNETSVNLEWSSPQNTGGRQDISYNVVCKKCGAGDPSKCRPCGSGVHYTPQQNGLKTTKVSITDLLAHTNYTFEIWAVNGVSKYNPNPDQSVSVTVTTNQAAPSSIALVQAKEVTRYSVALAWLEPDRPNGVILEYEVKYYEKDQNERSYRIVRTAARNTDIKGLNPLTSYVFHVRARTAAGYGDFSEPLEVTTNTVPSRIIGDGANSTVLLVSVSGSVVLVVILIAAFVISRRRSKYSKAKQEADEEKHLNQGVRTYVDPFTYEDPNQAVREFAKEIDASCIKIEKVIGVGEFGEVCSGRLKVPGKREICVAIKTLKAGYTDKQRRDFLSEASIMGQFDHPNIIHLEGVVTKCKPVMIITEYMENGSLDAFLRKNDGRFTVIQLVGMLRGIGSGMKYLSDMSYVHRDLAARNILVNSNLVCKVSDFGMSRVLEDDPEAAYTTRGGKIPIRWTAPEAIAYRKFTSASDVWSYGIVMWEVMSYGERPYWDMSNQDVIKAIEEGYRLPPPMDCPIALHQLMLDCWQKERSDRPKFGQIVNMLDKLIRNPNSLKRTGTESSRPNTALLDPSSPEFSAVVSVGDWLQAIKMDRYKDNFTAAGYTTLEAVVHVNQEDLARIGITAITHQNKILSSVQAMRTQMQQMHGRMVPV
Sequence of SRPK1 (human) (Q96SB4 whole entry, looked up): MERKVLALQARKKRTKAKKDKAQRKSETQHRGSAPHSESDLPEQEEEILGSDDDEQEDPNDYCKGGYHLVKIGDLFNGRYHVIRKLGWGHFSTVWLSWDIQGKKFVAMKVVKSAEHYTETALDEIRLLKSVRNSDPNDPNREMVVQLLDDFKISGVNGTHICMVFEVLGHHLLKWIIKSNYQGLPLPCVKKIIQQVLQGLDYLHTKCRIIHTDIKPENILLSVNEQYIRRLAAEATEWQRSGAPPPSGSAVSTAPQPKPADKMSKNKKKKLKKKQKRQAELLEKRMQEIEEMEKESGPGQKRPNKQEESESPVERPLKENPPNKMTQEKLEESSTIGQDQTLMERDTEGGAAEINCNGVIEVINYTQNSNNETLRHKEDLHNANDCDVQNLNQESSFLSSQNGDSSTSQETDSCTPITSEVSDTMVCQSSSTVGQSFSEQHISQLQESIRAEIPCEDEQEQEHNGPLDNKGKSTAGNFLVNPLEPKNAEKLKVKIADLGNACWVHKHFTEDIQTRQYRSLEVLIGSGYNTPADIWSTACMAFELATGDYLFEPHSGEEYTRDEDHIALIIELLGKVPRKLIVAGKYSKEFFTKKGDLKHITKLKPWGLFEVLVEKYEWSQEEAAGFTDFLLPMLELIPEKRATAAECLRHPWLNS
Sequence of SRC (human) (P12931 whole entry, looked up): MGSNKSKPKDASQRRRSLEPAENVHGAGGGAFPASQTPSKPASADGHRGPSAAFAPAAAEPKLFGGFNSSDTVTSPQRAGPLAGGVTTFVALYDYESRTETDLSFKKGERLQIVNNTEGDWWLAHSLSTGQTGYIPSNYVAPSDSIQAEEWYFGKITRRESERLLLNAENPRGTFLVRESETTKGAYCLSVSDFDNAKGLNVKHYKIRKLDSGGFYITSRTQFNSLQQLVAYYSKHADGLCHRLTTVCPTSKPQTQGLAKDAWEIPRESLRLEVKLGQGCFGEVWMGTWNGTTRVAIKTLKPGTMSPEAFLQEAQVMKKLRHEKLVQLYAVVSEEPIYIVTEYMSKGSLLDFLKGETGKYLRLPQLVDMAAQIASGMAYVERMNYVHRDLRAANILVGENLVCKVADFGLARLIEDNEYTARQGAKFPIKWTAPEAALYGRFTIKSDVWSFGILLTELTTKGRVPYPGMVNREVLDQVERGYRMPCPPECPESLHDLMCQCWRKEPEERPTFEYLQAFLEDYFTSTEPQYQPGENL
Sequence of MAPK10 (human) (P53779 whole entry, looked up): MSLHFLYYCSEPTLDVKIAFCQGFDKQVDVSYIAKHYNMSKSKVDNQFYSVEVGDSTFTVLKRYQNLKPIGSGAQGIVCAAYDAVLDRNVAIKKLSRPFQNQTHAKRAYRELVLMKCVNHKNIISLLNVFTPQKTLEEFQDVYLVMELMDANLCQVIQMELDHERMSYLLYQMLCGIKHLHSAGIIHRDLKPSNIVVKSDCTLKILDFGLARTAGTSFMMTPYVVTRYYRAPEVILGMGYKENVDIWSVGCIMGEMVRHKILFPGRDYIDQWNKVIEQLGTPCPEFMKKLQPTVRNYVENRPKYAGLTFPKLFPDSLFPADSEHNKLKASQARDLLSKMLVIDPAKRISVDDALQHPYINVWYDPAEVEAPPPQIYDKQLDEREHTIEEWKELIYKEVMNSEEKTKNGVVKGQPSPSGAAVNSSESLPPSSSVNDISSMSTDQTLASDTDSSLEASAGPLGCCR

residual activity ([1]; compound 0.1 µM): 116%
residual activity ([1]; compound 1.0 µM): 108%
residual activity ([1]; compound 10.0 µM): 118%
residual activity ([2]; compound 0.1 µM): 110%
residual activity ([2]; compound 1.0 µM): 112%
residual activity ([2]; compound 10.0 µM): 99.9%
residual activity ([3]; compound 0.1 µM): 96.3%
residual activity ([3]; compound 1.0 µM): 28.7%
residual activity ([3]; compound 10.0 µM): 7.58%
residual activity ([4]; compound 0.1 µM): 102%
residual activity ([4]; compound 1.0 µM): 104%
residual activity ([4]; compound 10.0 µM): 101%
residual activity ([5]; compound 0.1 µM): 98.6%
residual activity ([5]; compound 1.0 µM): 102%
residual activity ([6]; compound 0.1 µM): 116%
residual activity ([6]; compound 1.0 µM): 91.8%
residual activity ([6]; compound 10.0 µM): 31.8%
residual activity ([7]; compound 0.1 µM): 98.7%
residual activity ([7]; compound 1.0 µM): 33.7%
residual activity ([7]; compound 10.0 µM): 7.2%
residual activity ([8]; compound 0.1 µM): 104%
residual activity ([8]; compound 1.0 µM): 84.6%
residual activity ([8]; compound 10.0 µM): 73.5%
residual activity ([9]; compound 0.1 µM): 108%
residual activity ([9]; compound 1.0 µM): 104%
residual activity ([9]; compound 10.0 µM): 87.5%
residual activity ([10]; compound 0.1 µM): 106%
residual activity ([10]; compound 1.0 µM): 91.7%
residual activity ([10]; compound 10.0 µM): 85.2%
residual activity ([11]; compound 0.1 µM): 66.5%
residual activity ([11]; compound 1.0 µM): 9.72%
residual activity ([11]; compound 10.0 µM): 2.65%
residual activity ([12]; compound 0.1 µM): 102%
residual activity ([12]; compound 1.0 µM): 97.1%
residual activity ([12]; compound 10.0 µM): 73%
residual activity ([13]; compound 0.1 µM): 117%
residual activity ([13]; compound 1.0 µM): 107%
residual activity ([13]; compound 10.0 µM): 129%
kinase still bound, per cent of control [14]: 0.7%
kinase still bound, per cent of control [15]: 2.4%
residual activity [16]: 0.9%
kinase still bound, per cent of control [17]: 0.95%
kinase still bound, per cent of control [18]: 0%
kinase still bound, per cent of control [19]: 0%
kinase still bound, per cent of control [20]: 5.6%
kinase still bound, per cent of control [21]: 11%
kinase still bound, per cent of control [22]: 0.45%
kinase still bound, per cent of control [23]: 23%
kinase still bound, per cent of control [24]: 0%
kinase still bound, per cent of control [25]: 0.3%
kinase still bound, per cent of control [26]: 0%
kinase still bound, per cent of control [27]: 0%
kinase still bound, per cent of control [28]: 0.35%
kinase still bound, per cent of control [29]: 6.4%
kinase still bound, per cent of control [30]: 20%
kinase still bound, per cent of control [31]: 23%
kinase still bound, per cent of control [32]: 4.7%
kinase still bound, per cent of control [33]: 0.2%
kinase still bound, per cent of control [34]: 0.95%
kinase still bound, per cent of control [35]: 8.2%
SMILES: CCN1CCN(Cc2ccc(NC(=O)c3ccc(C)c(Oc4ccnc5[nH]ccc45)c3)cc2C(F)(F)F)CC1
